Assay results published in patent US20260018245A1, “SYSTEMS AND METHODS FOR IDENTIFYING AND TARGETING COLLATERAL LETHAL GENES” (The Regents of the University of Michigan, priority 2022, published 2026).

Tests used:
SKOV3 cells [1] = experiment: Oxygen consumption rate (OCR) measurement; type: cell-based
Protocol: FIG. 4 Dynamic flux analysis with parallel tracers to quantify oxidative MTHFD2 flux. a, Oxidative MTHFD2 flux and percentage decrease in OCRfollowing MTHFD2 inhibition in SKOV3 cells treated with rotenone (0, 31, 62, 125, 250, 500 or 1,000 nM) and MTHFD2 inhibitor (0 or 60 μM). Oxidative MTHFD2 flux is proportional to [2H1]-serine/[2H1]-NADH enrichment in cells cultured with 4-[2H]-glucose for 8 h. Percentage decrease in OCR is estimated in SKOV3 cells treated with 60 μM MTHFD2i compared with 0 μM MTHFD2i. Oxidative flux data are combined from two independent experiments (n=4), with mean±s.d. estimated using error propagation. OCR data are representative of two independent experiments and presented as mean±s.d. estimated using error propagation (n=5). b, Reductive MTHFD2 flux and basal OCR in SKOV3 cells treated with rotenone (0, 31, 62, 125, 250 or 1,000 nM) and MTHFD2 inhibitor (0 or 60 μM). Reductive MTHFD2 flux is proportional to [2H1]-NADH in cells cultured with 2,3,3-[2H]-serine for 8 h. OCR data are representative of two independent experiments and presented as mean±s.e.m. (n=5). c, Schematic of combination tracer experiment with 4-[2H]-glucose and [2H]-formate to track oxidative MTHFD2 flux. […] (n=6) and analysed using two-tailed Welch's t-test. e, Ratio of [2H2]-serine/[2H]-NADH enrichment in SKOV3 and OVCAR8 cells at 2 h after combined tracer introduction of 4-[2H]-glucose and [2H]-formate, representing the normalized contribution of [2H]-NADH to [2H2]-serine via oxidative MTHFD2 flux. Data combined from two independent experiments (n=6), with mean±s.d. estimated using error propagation and analysed by two-tailed Welch's t-test. f, [2H2]-serine enrichment in SKOV3 cells expressing shScramble or shUQCR11 at 2 h after combined tracer introduction of 4-[2H]-glucose and [2H]-formate. […] (n=5) and analysed using one-tailed non-parametric Mann-Whitney test.
OCR measurement. […] Live OCR was measured for up to 16 h after attaching the lid.
Mito stress test with the Seahorse analyser. Mitochondrial OCR was measured using a Seahorse XFe96 analyser (Agilent Technologies). […]

SKOV3 cells [2] = experiment: Two-drug synergy of rotenone and MTHFD2 inhibitor on viability (SynergyFinder); type: cell-based; settings: MTHFD2 inhibitor combined with complex I inhibitor rotenone
Source text: FIG. 11 Investigating alternative metabolic pathways to rescue UQCR11-null cells from collateral lethal targeting of MTHFD2. (a) Correlation between NDUFS7 mRNA expression and copy-number alterations of the 19p13.3 locus, represented by UQCR11 copy-number in TCGA OVCA dataset (n=303). Correlations estimated using Spearman's rank correlation test. (b) Gene expression of NDUFS7 measured via qRT-PCR in UQCR11-null lines (OVCAR8, CAOV3, HeyA8) relative to NDUFS7 expression in UQCR11-intact line (SKOV3). Data representative of two independent experiments presented as mean±s.d. (n=5), analyzed using ordinary one-way ANOVA with Dunnett's correction for multiple comparisons. (c) Doseresponse curve for single-agent inhibition in SKOV3 cells by either Complex I inhibitor, rotenone, or MTHFD2 inhibitor. […] Data are representative of two independent experiments and presented as mean±s.e.m (n=3) and analyzed using two-tailed Welch's t-test. […] Viability decrease was measured 72 h after inhibitor treatment relative to vehicle control. […] (n=6) and analyzed using ordinary 2-way ANOVA with Sidak's correction for multiple comparisons. […] (n=4) and analyzed using two-tailed Welch's t-test. […] Viability decrease was measured 72 h after inhibitor treatment relative to vehicle control. […] (n=5) and analyzed using two-tailed Welch's t-test.

Structure (SMILES): Cc1c(N2CCN(C)[C@@H](C)C2)ccc2c3c(c(=O)oc12)CN(C(=O)c1ccc(NS(C)(=O)=O)c(OC(F)(F)F)c1)CC3 [DS18561882]
- OCR (SKOV3 cells [1]; SKOV3, low range of rotenone doses plus MTHFD2 inhibitor 60 μM): synergistic decrease
- OCR (SKOV3 cells [1]; SKOV3, rotenone doses >62 nM plus MTHFD2 inhibitor): did not detrimentally affect OCR
- effect of co-inhibition on viability (SKOV3 cells [2]): synergistic effect
